Laboratory results as given in ChEMBL document CHEMBL1201862, “PubChem BioAssay data set” (2004).
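1) Cells in 96-well plates. 2) Compound, 48 h, 5 concentrations. 3) Linear interpolation between surrounding doses. 4) Unreached endpoint = highest concentration. GI50 marks 50% less growth.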 Active and inactive are the calls of the source. Cut-off read from the data, not from the text of the source: active = GI50 up to about 1.1 µM and inactive = higher.

Columns and labels:
Test in all cases: NCI tumour cell line growth inhibition, 48 h
[1] = system: RPMI-8226
[2] = system: NCI-H522
[3] = system: NCI/ADR-RES
[4] = system: SK-OV-3
[5] = system: 786-0
[6] = system: KM12
[7] = system: NCI-H460
[8] = system: Hs-578T
[9] = system: A549
[10] = system: UO-31
[11] = system: UACC-62
[12] = system: MDA-MB-231
[13] = system: RXF 393
[14] = system: COLO 205
[15] = system: EKVX
[16] = system: SNB-75
[17] = system: MOLT-4
[18] = system: M14
[19] = system: SN12C
[20] = system: OVCAR-3

SMILES	GI50 [1]	GI50 [2]	GI50 [3]	GI50 [4]	GI50 [5]	GI50 [6]	GI50 [7]	GI50 [8]	GI50 [9]	GI50 [10]	GI50 [11]	GI50 [12]	GI50 [13]	GI50 [14]	GI50 [15]	GI50 [16]	GI50 [17]	GI50 [18]	GI50 [19]	GI50 [20]
O=C1c2c(O)cccc2C(C2OC(CO)C(O)C(O)C2O)c2cc(CO)cc(O)c21 (stereo not drawn)	> 100 µM (inactive)	> 100 µM (inactive)	> 100 µM (inactive)	> 100 µM (inactive)	> 100 µM (inactive)	> 100 µM (inactive)	> 100 µM (inactive)	> 100 µM (inactive)	> 100 µM (inactive)	> 100 µM (inactive)	> 100 µM (inactive)	> 100 µM (inactive)	> 100 µM (inactive)	> 100 µM (inactive)	> 100 µM (inactive)	> 100 µM (inactive)	> 100 µM (inactive)	> 100 µM (inactive)	> 100 µM (inactive)	–
CNc1ncnc(Sc2nc(N)nc3[nH]cnc23)c1[N+](=O)[O-]	0.15 µM (active)	0.635 µM (active)	0.427 µM (active)	0.547 µM (active)	0.583 µM (active)	2.64 µM (inactive)	0.552 µM (active)	3.24 µM (inactive)	3.08 µM (inactive)	0.676 µM (active)	0.586 µM (active)	1.73 µM (inactive)	0.45 µM (active)	2.13 µM (inactive)	3.08 µM (inactive)	0.406 µM (active)	0.409 µM (active)	0.448 µM (active)	0.933 µM (active)	0.75 µM (active)
O=[N+]([O-])/C=C/c1cccc(F)c1	1.48 µM (inactive)	12.3 µM (inactive)	13.1 µM (inactive)	14.3 µM (inactive)	1.66 µM (inactive)	2.95 µM (inactive)	12.2 µM (inactive)	3.12 µM (inactive)	4.16 µM (inactive)	2.54 µM (inactive)	8.04 µM (inactive)	16.4 µM (inactive)	2.02 µM (inactive)	2.74 µM (inactive)	3.03 µM (inactive)	13.7 µM (inactive)	–	2.74 µM (inactive)	17 µM (inactive)	2.39 µM (inactive)
[N-]=[N+]=Nc1ccccc1-c1ccccc1[N+](=O)[O-]	26 µM (inactive)	14.9 µM (inactive)	29.9 µM (inactive)	> 100 µM (inactive)	88.1 µM (inactive)	49.2 µM (inactive)	26.9 µM (inactive)	30.5 µM (inactive)	> 100 µM (inactive)	72.8 µM (inactive)	74.3 µM (inactive)	50.2 µM (inactive)	86.1 µM (inactive)	–	39.4 µM (inactive)	50 µM (inactive)	22.1 µM (inactive)	50.9 µM (inactive)	97.9 µM (inactive)	39.4 µM (inactive)
CCn1c(SCC(=O)NNC(=S)NC)nc2ccccc2c1=O	53 µM (inactive)	> 100 µM (inactive)	> 100 µM (inactive)	> 100 µM (inactive)	> 100 µM (inactive)	> 100 µM (inactive)	18.6 µM (inactive)	> 100 µM (inactive)	88.9 µM (inactive)	62.2 µM (inactive)	> 100 µM (inactive)	> 100 µM (inactive)	34 µM (inactive)	> 100 µM (inactive)	> 100 µM (inactive)	> 100 µM (inactive)	> 100 µM (inactive)	> 100 µM (inactive)	> 100 µM (inactive)	> 100 µM (inactive)
CC1=NCCN=C(C)C1/N=N/c1ccc2[nH]c(C)nc2c1	3.11 µM (inactive)	17.4 µM (inactive)	12 µM (inactive)	19.1 µM (inactive)	11.7 µM (inactive)	11.7 µM (inactive)	18.2 µM (inactive)	23.3 µM (inactive)	6.19 µM (inactive)	–	14.2 µM (inactive)	12.7 µM (inactive)	16.3 µM (inactive)	15.2 µM (inactive)	15.8 µM (inactive)	13.2 µM (inactive)	6.38 µM (inactive)	3.57 µM (inactive)	11.7 µM (inactive)	19.5 µM (inactive)
C/N=c1\sc2c(n1C)C(=O)c1ccccc1C2=O	4.14 µM (inactive)	9.31 µM (inactive)	3.95 µM (inactive)	31.2 µM (inactive)	6.79 µM (inactive)	3.37 µM (inactive)	2.62 µM (inactive)	2.39 µM (inactive)	1.93 µM (inactive)	7.45 µM (inactive)	2.11 µM (inactive)	12.2 µM (inactive)	3.08 µM (inactive)	5.3 µM (inactive)	10.7 µM (inactive)	2.06 µM (inactive)	5.15 µM (inactive)	1.5 µM (inactive)	1.64 µM (inactive)	3.44 µM (inactive)
c1cc2nnc1SCCCSc1ccc(nn1)SCCCSc1ccc(nn1)SCCCS2	> 100 µM (inactive)	> 100 µM (inactive)	> 100 µM (inactive)	> 100 µM (inactive)	61 µM (inactive)	> 100 µM (inactive)	> 100 µM (inactive)	32.4 µM (inactive)	> 100 µM (inactive)	> 100 µM (inactive)	> 100 µM (inactive)	97.3 µM (inactive)	56.4 µM (inactive)	> 100 µM (inactive)	–	28.6 µM (inactive)	> 100 µM (inactive)	> 100 µM (inactive)	> 100 µM (inactive)	> 100 µM (inactive)
Oc1ccc2ccccc2c1/N=N/c1ccc(/N=N/c2ccccc2)cc1	> 100 µM (inactive)	86.3 µM (inactive)	> 100 µM (inactive)	> 100 µM (inactive)	> 100 µM (inactive)	84.9 µM (inactive)	–	> 100 µM (inactive)	74.5 µM (inactive)	59 µM (inactive)	75.7 µM (inactive)	89.1 µM (inactive)	> 100 µM (inactive)	> 100 µM (inactive)	> 100 µM (inactive)	70.1 µM (inactive)	> 100 µM (inactive)	> 100 µM (inactive)	> 100 µM (inactive)	> 100 µM (inactive)
COc1cc(N(CCC#N)CCC#N)ccc1C(=N/NC(=O)c1cc(Br)ccc1O)/N=N/c1ccccc1	17.1 µM (inactive)	23.4 µM (inactive)	32.5 µM (inactive)	31.1 µM (inactive)	29.1 µM (inactive)	28.2 µM (inactive)	22.6 µM (inactive)	61.2 µM (inactive)	25.4 µM (inactive)	21.6 µM (inactive)	20 µM (inactive)	21.2 µM (inactive)	26.4 µM (inactive)	16.3 µM (inactive)	21.1 µM (inactive)	27.7 µM (inactive)	15.9 µM (inactive)	29 µM (inactive)	31.8 µM (inactive)	22 µM (inactive)
OC[C@H]1O[C@@H](n2cnc3c(S)ncnc32)[C@H](O)[C@@H]1O [THIOINOSINE]	1400 µM (inactive)	2160 µM (inactive)	2040 µM (inactive)	603 µM (inactive)	> 2500 µM (inactive)	> 2500 µM (inactive)	2140 µM (inactive)	> 2440 µM (inactive)	> 2500 µM (inactive)	–	1250 µM (inactive)	> 2500 µM (inactive)	2460 µM (inactive)	> 2230 µM (inactive)	> 2500 µM (inactive)	> 2120 µM (inactive)	2300 µM (inactive)	2360 µM (inactive)	> 2500 µM (inactive)	1160 µM (inactive)
